Assay results as given in patent publication US9226912B2, “Acetyltanshinone IIA (ATA) as anticancer agent” (Nanyang Technological University, priority 2011, dated 2016).
Entries after “also recorded” stand apart in the source; their conditions may differ. Like-named read-outs stand apart in the source and are kept apart here.

Experiments:
MCF-7 [1] = assay: IC50 and LC50 of ATA at 48 h; type: cell-based; settings: Homo sapiens, MCF7, MCF-7 breast cancer
HL-60 = assay: IC50 and LC50 of ATA at 48 h; type: cell-based; settings: Homo sapiens, HL-60 leukemia
A549 = assay: IC50 of ATA at 72 h; type: cell-based; settings: Homo sapiens, A549 lung cancer cells
Description: (§1) The cytotoxcitiy of ATA was assessed in cancer cell lines and normal cells. In order to do so the IC50 of ATA at 72 h in multiple cancer cell lines or normal cell lines including muscle and fibroblast cells was evaluated.

C2C12 (non-cancerous) = assay: IC50 of ATA at 72 h; type: cell-based; settings: Mus musculus, C2C12 myoblast (normal muscle cells)
Description: as §1

Caco2 = assay: IC50 of ATA at 72 h; type: cell-based; settings: Homo sapiens, Caco-2, Caco2 colorectal adenocarcinoma
Description: as §1

HCT 116 = assay: IC50 of ATA at 72 h; type: cell-based; settings: Homo sapiens, HCT 116 colorectal adenocarcinoma
Description: as §1

HCT 15 = assay: IC50 of ATA at 72 h; type: cell-based; settings: Homo sapiens, HCT 15 colorectal adenocarcinoma
Description: as §1

HeLa = assay: IC50 of ATA at 72 h; type: cell-based; settings: Homo sapiens, HeLa cervical cancer cells
Description: as §1

HepG2 = assay: IC50 of ATA at 72 h; type: cell-based; settings: Homo sapiens, HepG2 liver cancer cells
Description: as §1

IMR-90 (non-cancerous) = assay: IC50 of ATA at 72 h; type: cell-based; settings: Homo sapiens, IMR-90 fibroblast (normal lung cells)
Description: as §1

K-562 = assay: IC50 of ATA at 72 h; type: cell-based; settings: Homo sapiens, K562, K-562 leukaemia cells
Description: as §1

SK-N-SH = assay: IC50 of ATA at 72 h; type: cell-based; settings: Homo sapiens, SK-N-SH neuroblastoma
Description: as §1

MCF-7 cells = assay: Combinatorial effect of ATA with paclitaxel, MTT assay; type: cell-based; settings: Homo sapiens, read-out: cell growth inhibition rate
Description: The effect was determined by measuring the rates of cell growth inhibition using MTT assay. (* p<0.01, compared with cells treated with either paclitaxel alone or ATA alone).
The inventors of the present invention have shown for the first time that ATA can increase the cytotoxic effect of paclitaxel. In the tests (FIG. 16) with five concentrations of ATA at 10, 5, 2.5, 1.25, 0.625 μM and five concentrations of paclitaxel at 1000, 100, 10, 1, 0.1 nM were used.

[2] = test system: Four types of cancer cells; assay: ATA versus TIIA, cell viability by MTT assay after 48 h; type: cell-based; settings: 10 μM or 20 μM
Description: Four types of cancer cells were treated with ATA or TIIA at either 10 μM or 20 μM and the cell viability was measured by MTT assay after 48 h of compound addition. * p<0.01.

HeLa cells = assay: ATA-induced cell death by cell counting under a microscope; type: cell-based; settings: 10 μM or 20 μM ATA, 24 h or 48 h, YFP-Bcl-2 transfected HeLa
Description: HeLa cells were treated with 10 μM ATA for 12, 24, 36, and 48 h. The β-tubulin protein was probed as a loading control. […] HeLa cells were pre-treated with 2 μM pan-caspase inhibitor (z-VAD-fmk) for 2 h before ATA addition. Then 10 μM or 20 μM ATA were added. After 24 h and 48 h treatment, the number of died cells was counted under a microscope. (* p<0.01, compared with cells treated with ATA only). Control: cells without any treatment.
Overexpression of Bcl-2 inhibited ATA-induced cell death. HeLa cells transfected with either yellow fluorescent protein (YFP) (vector control) or YFP-Bcl-2 (Bcl-2) were treated with ATA at 10 or 20 μM. The percentage of cell death from YFP-positive cells was determined by cell counting under a fluorescence microscope. (* p<0.01, compared with vector control groups).
The inventors of the present invention have shown for the first time that ATA can activate the apoptotic pathway in cancer cells. […]
HeLa cells transfected with YFP-Bcl-2 or YFP only were treated with 10 μM or 20 μM ATA. After 24 h or 48 h treatment, the percentage of cell death in each sample was calculated by counting the numbers of fluorescence-positive cells either live (attached with a normal cell morphology) or dead (detached with a shrunk morphology) under a fluorescence microscope. […]

[3] = test system: Bax and cytochrome c in MDA-MB-435 cells; assay: Bax translocation and cytochrome c release, cell fractionation Western blot and immunofluorescence; type: cell-based, human; settings: 5 μM ATA, 24 h, normalized to control 1.0
Description: The concentration of ATA and PG were 5 μM and 20 μM, respectively. […] Scale bar=10 μm.
The value of CY/MT represents the ratio of integrated band intensity of cytosol fraction (CY) over corresponding integrated band intensity of mitochondrial fraction (MT). The ratio was normalized by the control group. Two proteins were used as internal markers to judge the quality of cell fractionation experiment: Cox IV for mitochondria and β-tubulin mainly for cytosol.
The subcellular localization changes of Bax and cytochrome c during ATA-induced apoptosis were first examined using immunofluorescence staining.
It was further tested, whether PG could prevent ROS generation after ATA treatment.

[4] = test system: HER2 protein in BT474 cells; assay: HER2 protein level by Western blotting; type: cell-based, human; settings: 6 μM ATA or 1 μM fulvestrant
Description: Cells were treated with 6 μM ATA or 1 μM fulvestrant for indicated times and analyzed by Western blotting.

MCF-7 [5] = assay: Growth inhibition at 72 h by MTT assay

CC(=O)Oc1c(OC(C)=O)c2c(C)coc2c2ccc3c(c12)CCCC3(C)C [ATA, 1,6,6-trimethyl-8,9-dihydro-10,11-diacetoxyl-7H-naphtho[1,2-g][1]benzofuran] gave a CC50 (MCF-7 [1]) of 7640 ± 300 nM, an IC50 (MCF-7 [1]) of 1390 ± 640 nM and a CC50 (HL-60) of 8530 ± 200 nM. The IC50 (HL-60) was 2980 ± 370 nM, the IC50 (A549) was 810 ± 130 nM and the IC50 (C2C12 (non-cancerous)) was 10200 ± 1440 nM. For the same compound, the IC50 (Caco2) was 2500 ± 450 nM, the IC50 (HCT 116) was 2280 ± 490 nM and the IC50 (HCT 15) was 560 ± 80 nM. The IC50 (HeLa) was 690 ± 190 nM, the IC50 (HepG2) was 4270 ± 730 nM and the IC50 (IMR-90 (non-cancerous)) was 15500 ± 710 nM. It also gave an IC50 (K-562) of 1690 ± 340 nM, an IC50 (SK-N-SH) of 1240 ± 120 nM and an inhibition at 2.5 µM (MCF-7 cells; MCF7, 2.5 μM ATA in combination with paclitaxel 1 nM) of ~89%. The inhibition at 2.5 µM (MCF-7 cells; MCF7, ATA alone at 2.5 μM) was 71%, the “growth inhibition effect compared with TIIA” value [2] was “stronger growth inhibition effect than TIIA” and the “percentage of cell death in Bcl-2 over expressing cells versus normal Bcl-2 level” value (HeLa cells) was “significantly lower”. For the same compound, the “ratio of Bax level in the cytosol to that in the mitochondria” value [3] was < 0.1, the “ratio of cytochrome c level in cytosol to that in mitochondria” value [3] was 7.5 and the “level of HER2 protein” value [4] was “can reduce the level of HER2 protein; also recorded: reduced the level of ERα and HER2”. The IC50 (MCF-7 [5]; Homo sapiens, MCF7, 72 h) was 1480 ± 240 nM, the inhibition at 3.13 µM (MCF-7 [5]; Homo sapiens, MCF7, 72 h, read-out: growth inhibition rate) was 94.7% and the “IC50 ratio of tamoxifen/ATA” value (MCF-7 [5]; MCF-7 (ER+), 72 h) was 6.8. For the same compound, the “higher growth inhibition rate than tamoxifen” value (MCF-7 [5]; MCF-7, three tested drug concentrations, 72 h, MTT) was 57-74% and the “less ATA needed than tamoxifen to inhibit 50% of ER-positive cell growth” value (MCF-7 [5]; two ER-positive breast cancer cell lines, 72 h) was 6.7 fold.
